molecular target: T1, HDAC6 (Homo sapiens, UniProt Q9UBN7); assay: In vitro Histone Deacetylase Assay (enzymatic HDAC6 electrophoretic mobility shift assay); format: biochemical; settings: full length human recombinant HDAC6, 1 nM enzyme, 2 μM peptide substrate RHKK(Ac)-NH2, 25° C.; read-out: HDAC6 activity range
T1 construct: Full length human recombinant HDAC6 protein was expressed in baculoviral system; made in house; host or cells: baculoviral system
T1 sequence (Q9UBN7 1-1215): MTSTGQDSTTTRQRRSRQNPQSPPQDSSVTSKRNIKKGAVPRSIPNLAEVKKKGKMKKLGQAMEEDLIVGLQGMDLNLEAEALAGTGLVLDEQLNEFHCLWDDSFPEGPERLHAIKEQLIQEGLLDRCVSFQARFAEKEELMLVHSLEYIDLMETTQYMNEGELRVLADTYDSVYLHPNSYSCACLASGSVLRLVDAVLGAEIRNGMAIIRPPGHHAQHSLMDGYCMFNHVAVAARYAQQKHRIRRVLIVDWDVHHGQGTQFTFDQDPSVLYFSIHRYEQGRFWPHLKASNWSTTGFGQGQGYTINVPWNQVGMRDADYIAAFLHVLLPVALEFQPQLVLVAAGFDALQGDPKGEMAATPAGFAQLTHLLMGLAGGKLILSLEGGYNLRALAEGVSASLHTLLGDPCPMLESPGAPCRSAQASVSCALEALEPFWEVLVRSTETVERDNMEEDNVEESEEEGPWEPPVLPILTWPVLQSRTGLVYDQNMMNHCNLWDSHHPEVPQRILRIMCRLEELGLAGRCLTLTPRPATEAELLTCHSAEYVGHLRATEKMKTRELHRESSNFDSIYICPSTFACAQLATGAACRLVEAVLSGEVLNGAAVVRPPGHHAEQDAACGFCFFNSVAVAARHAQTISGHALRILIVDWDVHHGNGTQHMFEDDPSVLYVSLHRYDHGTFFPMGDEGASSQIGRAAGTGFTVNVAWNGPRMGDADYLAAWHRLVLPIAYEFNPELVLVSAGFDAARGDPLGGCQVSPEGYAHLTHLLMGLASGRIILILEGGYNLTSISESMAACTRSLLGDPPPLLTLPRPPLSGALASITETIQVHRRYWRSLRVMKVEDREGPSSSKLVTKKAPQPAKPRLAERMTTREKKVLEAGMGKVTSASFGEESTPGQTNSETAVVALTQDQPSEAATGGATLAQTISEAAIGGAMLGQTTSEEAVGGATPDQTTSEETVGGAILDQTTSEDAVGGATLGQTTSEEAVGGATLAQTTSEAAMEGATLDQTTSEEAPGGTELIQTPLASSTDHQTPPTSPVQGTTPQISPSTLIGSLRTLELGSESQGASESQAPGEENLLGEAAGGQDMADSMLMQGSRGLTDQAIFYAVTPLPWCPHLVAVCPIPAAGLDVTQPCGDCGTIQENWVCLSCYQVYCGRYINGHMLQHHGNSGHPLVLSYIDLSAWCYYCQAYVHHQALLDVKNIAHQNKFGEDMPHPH
Outline: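 Deacetylation was read by microfluidic mobility shift as product/(substrate+product) peak ratio and normalised to 0% and 100% inhibition controls. Reactions used 1 nM baculovirus-expressed full-length human HDAC6 and 2 μM labelled RHKK(Ac)-NH2 in pH 7.5 HEPES buffer with 1% DMSO at 25 °C. IC50 was from 4-parameter fits of 12 concentrations.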

IC50	SMILES
≤ 100 nM	CN1CCCC2(CCc3cc(C(=O)NO)ccc3C2)C1=O (centres unmarked) [Compound I-178, N-hydroxy-1′-methyl-2′-oxo-3,4-dihydro-1H-spiro[naphthalene-2,3′-piperidine]-6-carboxamide]
≤ 100 nM	Cc1ccccc1CN1CC2(CCc3cc(C(=O)NO)ccc3C2)CC1=O (single isomer, unassigned) [Compound I-225]
≤ 100 nM	O=C(NO)c1ccc2c(c1)CC[C@@]1(CCN(c3ccc(F)c(F)c3)C1=O)C2 [Compound I-155, (S)-1′-(3,4-difluorophenyl)-N-hydroxy-2′-oxo-3,4-dihydro-1H-spiro[naphthalene-2,3′-pyrrolidine]-6-carboxamide]
> 500 nM	COc1ccc(C(=O)N2CCC3(CCc4cc(C(=O)NO)ccc4O3)CC2)cc1 [II-4, N-hydroxy-1′-(4-methoxybenzoyl)spiro[chromane-2,4′-piperidine]-6-carboxamide]
100 to 500 nM	O=C(NO)c1ccc2c(c1)CC[C@@]1(CCN(C3CCCC3)C1=O)C2 [Compound I-164, (S)-1′-cyclopentyl-N-hydroxy-2′-oxo-3,4-dihydro-1H-spiro[naphthalene-2,3′-pyrrolidine]-6-carboxamide]
≤ 100 nM	CN1CCC[C@]2(CCc3cc(C(=O)NO)ccc3C2)C1=O (single isomer, unassigned) [Compound I-180]
≤ 100 nM	O=C(NO)c1ccc2c(c1)CC[C@@]1(CCCN(C3CCCC3)C1=O)C2 [Compound I-199, (R)-1′-cyclopentyl-N-hydroxy-2′-oxo-3,4-dihydro-1H-spiro[naphthalene-2,3′-piperidine]-6-carboxamide]
≤ 100 nM	O=C(NO)c1ccc2c(c1)CC[C@]1(CCN(C3CCCC3)C1=O)C2 [Compound I-163, (R)-1′-cyclopentyl-N-hydroxy-2′-oxo-3,4-dihydro-1H-spiro[naphthalene-2,3′-pyrrolidine]-6-carboxamide]
≤ 100 nM	O=C(NO)c1ccc2c(c1)CCC1(CC(=O)N(CC3COC3)C1)C2 (single isomer, unassigned) [Compound I-215]
≤ 100 nM	O=C(NO)c1ccc2c(c1)CCC1(CC(=O)N(C3CC3)C1)C2 (single isomer, unassigned) [Compound I-209]
100 to 500 nM	O=C(NO)c1ccc2c(c1)CCC1(CCN(Cc3ccccc3)C1=O)O2 (centres unmarked) [Compound I-232, 1′-benzyl-N-hydroxy-2′-oxospiro[chromane-2,3′-pyrrolidine]-6-carboxamide]
≤ 100 nM	O=C(NO)c1ccc2c(c1)CCC1(CC(=O)N(c3ccc(F)cc3)C1)C2 (single isomer, unassigned) [Compound I-227]
≤ 100 nM	COc1cc(F)cc(N2CC[C@@]3(CCc4cc(C(=O)NO)ccc4C3)C2=O)c1 [Compound I-148, (2S)-1′-(3-fluoro-5-methoxyphenyl)-N-hydroxy-2′-oxo-3,4-dihydro-1H-spiro[naphthalene-2,3′-pyrrolidine]-6-carboxamide]
≤ 100 nM	CC(C)CN1CC2(CCc3cc(C(=O)NO)ccc3C2)CC1=O (single isomer, unassigned) [Compound I-212]
≤ 100 nM	O=C(NO)c1ccc2c(c1)CC[C@@]1(CCN(c3cccc(F)c3F)C1=O)C2 [Compound I-156, (S)-1′-(2,3-difluorophenyl)-N-hydroxy-2′-oxo-3,4-dihydro-1H-spiro[naphthalene-2,3′-pyrrolidine]-6-carboxamide]
≤ 100 nM	O=C(NO)c1ccc2c(c1)CC[C@@]1(CCN(C3CCC3)C1=O)C2 (single isomer, unassigned) [Compound I-172]

Second part, the molecule before the results:

SMILES	IC50
N#Cc1cccc(N2CC[C@]3(CCc4cc(C(=O)NO)ccc4C3)C2=O)c1 [Compound I-112, (R)-1′-(3-cyanophenyl)-N-hydroxy-2′-oxo-3,4-dihydro-1H-spiro[naphthalene-2,3′-pyrrolidine]-6-carboxamide]	≤ 100 nM
O=C(NO)c1ccc2c(c1)CC[C@@]1(CCN(CC3COC3)C1=O)C2 [Compound I-122, (S)-N-hydroxy-1′-(oxetan-3-ylmethyl)-2′-oxo-3,4-dihydro-1H-spiro[naphthalene-2,3′-pyrrolidine]-6-carboxamide]	100 to 500 nM
O=C(NO)c1ccc2c(c1)CC[C@]1(CCN(Cc3cccc(F)c3)C1=O)C2 [Compound I-53, (R)-1′-(3-fluorobenzyl)-N-hydroxy-2′-oxo-3,4-dihydro-1H-spiro[naphthalene-2,3′-pyrrolidine]-6-carboxamide]	≤ 100 nM
COc1cncc(N2CC[C@@]3(CCc4cc(C(=O)NO)ccc4C3)C2=O)c1 [Compound I-144, (2S)-N-hydroxy-1′-(5-methoxypyridin-3-yl)-2′-oxo-3,4-dihydro-1H-spiro[naphthalene-2,3′-pyrrolidine]-6-carboxamide]	≤ 100 nM
COc1ccc(CN2CC[C@]3(CCc4cc(C(=O)NO)ccc4C3)C2=O)cc1 [Compound I-56, (R)-N-hydroxy-1′-(4-methoxybenzyl)-2′-oxo-3,4-dihydro-1H-spiro[naphthalene-2,3′-pyrrolidine]-6-carboxamide]	≤ 100 nM
O=C(NO)c1ccc2c(c1)CC[C@@]1(CCN(Cc3ccccc3)C1=O)C2 [Compound I-76, (S)-1′-benzyl-N-hydroxy-2′-oxo-3,4-dihydro-1H-spiro[naphthalene-2,3′-pyrrolidine]-6-carboxamide]	≤ 100 nM
O=C(NO)c1ccc2c(c1)CC[C@@]1(CCN(Cc3ccc4nonc4c3)C1=O)C2 [Compound I-70, (S)-1′-(benzo[c][1,2,5]oxadiazol-5-ylmethyl)-N-hydroxy-2′-oxo-3,4-dihydro-1H-spiro[naphthalene-2,3′-pyrrolidine]-6-carboxamide]	≤ 100 nM
CCCN1CC[C@]2(CCc3cc(C(=O)NO)ccc3C2)C1=O [Compound I-32, (R)-N-hydroxy-2′-oxo-1′-propyl-3,4-dihydro-1H-spiro[naphthalene-2,3′-pyrrolidine]-6-carboxamide]	≤ 100 nM
COc1ccc(F)c(N2CC[C@@]3(CCc4cc(C(=O)NO)ccc4C3)C2=O)c1 [Compound I-147, (2S)-1′-(2-fluoro-5-methoxyphenyl)-N-hydroxy-2′-oxo-3,4-dihydro-1H-spiro[naphthalene-2,3′-pyrrolidine]-6-carboxamide]	≤ 100 nM
Cc1ncccc1N1CC[C@]2(CCc3cc(C(=O)NO)ccc3C2)C1=O [Compound I-131, (R)-N-hydroxy-1′-(2-methylpyridin-3-yl)-2′-oxo-3,4-dihydro-1H-spiro[naphthalene-2,3′-pyrrolidine]-6-carboxamide]	≤ 100 nM
O=C(NO)c1ccc2c(c1)CC[C@@]1(CCN(Cc3cccnc3)C1=O)C2 [Compound I-19, (S)-N-hydroxy-2′-oxo-1′-(pyridin-3-ylmethyl)-3,4-dihydro-1H-spiro[naphthalene-2,3′-pyrrolidine]-6-carboxamide]	≤ 100 nM
O=C(NO)c1ccc2c(c1)CC[C@]1(CCN(c3ccncc3)C1=O)C2 [Compound I-16, (R)-N-hydroxy-2′-oxo-1′-(pyridin-4-yl)-3,4-dihydro-1H-spiro[naphthalene-2,3′-pyrrolidine]-6-carboxamide]	100 to 500 nM
O=C(NO)c1ccc2c(c1)CC[C@@]1(CCN(c3cccnc3)C1=O)C2 [Compound I-11, (S)-N-hydroxy-2′-oxo-1′-(pyridin-3-yl)-3,4-dihydro-1H-spiro[naphthalene-2,3′-pyrrolidine]-6-carboxamide]	≤ 100 nM
CC(C)n1c(CN2CC[C@]3(CCc4cc(C(=O)NO)ccc4C3)C2=O)nc2ccccc21 [Compound I-45]	≤ 100 nM
CC(C)N1CC[C@@]2(CCc3cc(C(=O)NO)ccc3C2)C1=O [Compound I-25, (S)-N-hydroxy-1′-isopropyl-2′-oxo-3,4-dihydro-1H-spiro[naphthalene-2,3′-pyrrolidine]-6-carboxamide]	≤ 100 nM
O=C(NO)c1ccc2c(c1)CC[C@]1(CCN(Cc3ccccc3OC(F)F)C1=O)C2 [Compound I-59, (R)-1′-(2-(difluoromethoxy)benzyl)-N-hydroxy-2′-oxo-3,4-dihydro-1H-spiro[naphthalene-2,3′-pyrrolidine]-6-carboxamide]	≤ 100 nM

— patent US9630922B2, “3-spiro-7-hydroxamic acid tetralins as HDAC inhibitors” (Forma Therapeutics, Inc., priority 2015, dated 2017)
